According to ChEMBL document CHEMBL1955803, “Preclinical in vivo evaluation of efficacy, pharmacokinetics, and pharmacodynamics of a novel MEK1/2 kinase inhibitor RO5068760 in multiple tumor models” (Mol Cancer Ther, 2010):
The source made the active and inactive calls. No cut-off for these calls is given here.

Tests used:
[1] = Cmax in human H460 cells expressing K-Ras Q61H mutant xenografted nude mouse at 100 mg/kg, po bid; format: ADME, organism-based; design: dose 100 mg/kg, route oral; details: in vivo
[2] = AUC (0 to 12 hrs) in human LOX cells expressing B-Raf V600E mutant xenografted nude mouse at 6.25 mg/kg, po bid; format: ADME, organism-based; design: time < 12 hr, dose 6.25 mg/kg, route oral; details: in vivo
[3] = Drug level in human LOX cells expressing B-Raf V600E mutant xenografted nude mouse tumor at 100 mg/kg, po after 12 hrs; format: ADME, organism-based, Neoplasm; design: dose 100 mg/kg, route oral; details: read-out: Drug uptake
Mus musculus [4] = test: Inhibition of MEK-mediated ERK phosphorylation in tumor of human LOX cells expressing B-Raf V600E mutant xenografted nude mouse at 100 mg/kg, po after 8 hrs by Western blot analysis relative to control; format: functional
Mus musculus [5] = test: Average drug concentration in human MIAPaCa2 cells expressing K-Ras G12C mutant xenografted nude mouse plasma at 100 mg/kg, po bid; format: ADME, organism-based, MIA PaCa-2; design: dose 100 mg/kg, route oral; details: in vivo
[6] = Cmax in human LOX cells expressing B-Raf V600E mutant xenografted nude mouse at 6.25 mg/kg, po bid; format: ADME, organism-based; design: dose 6.25 mg/kg, route oral; details: in vivo
[7] = biological target: T1, Dual specificity mitogen-activated protein kinase kinase; MEK1/2 (Homo sapiens) (UniProt P36507+Q02750); details: LOX, 2 to 10 uM
Description: Inhibition of MEK1/2 in human LOX cells assessed as down regulation of CDK4/cyclin D1 expression at 2 to 10 uM by Western blot analysis

[8] = Plasma concentration in human HT-29 cells expressing B-Raf V600E mutant xenografted nude mouse at 50 mg/kg, po after 12 hrs; format: ADME, organism-based; design: dose 50 mg/kg, route oral
HT-29 [9] = test: Growth inhibition of human HT-29 cells expressing B-Raf V600E mutant by MTT assay; format: functional, cell-based
Mus musculus [10] = test: Toxicity in human LOX cells expressing B-Raf V600E mutant xenografted nude mouse assessed as gross signs of adverse effect at 500 mg/kg, po administered weekly once for 3 weeks; format: organism-based; design: dose 500 mg/kg, route oral; details: in vivo, 504 h
Mus musculus [11] = test: Average drug concentration in human LOX cells expressing B-Raf V600E mutant xenografted nude mouse plasma at 12.5 mg/kg, po bid; format: ADME, organism-based; design: dose 12.5 mg/kg, route oral; details: in vivo
[12] = AUC (0 to 12 hrs) in human MIAPaCa2 cells expressing K-Ras G12C mutant xenografted nude mouse at 50 mg/kg, po bid; format: ADME, organism-based, MIA PaCa-2; design: time < 12 hr, dose 50 mg/kg, route oral; details: in vivo
[13] = Cmax in human H460 cells expressing K-Ras Q61H mutant xenografted nude mouse at 25 mg/kg, po bid; format: ADME, organism-based; design: dose 25 mg/kg, route oral; details: in vivo
NCI-H460 = test: Antitumor activity against human H460 cells expressing K-Ras Q61H mutant xenografted in nude mouse assessed as tumor growth inhibition at 500 mg/kg, po administered weekly once; format: functional; details: read-out: GI
MIA PaCa-2 = test: Antitumor activity against human MIAPaCa2 cells expressing K-Ras G12C mutant xenografted in nude mouse assessed as tumor growth inhibition at 25 mg/kg, po bid; format: functional; details: read-out: GI
Mus musculus [14] = test: Inhibition of MEK-mediated ERK phosphorylation in po dosed human LOX cells expressing B-Raf V600E mutant xenografted nude mouse tumor by Western blot analysis; format: functional, organism-based
Mus musculus [15] = test: Toxicity in human MIAPaCa2 cells expressing K-Ras G12C mutant xenografted nude mouse assessed as gross signs of adverse effect at 25 to 200 mg/kg, po bid for 3 weeks; format: organism-based, MIA PaCa-2; design: dose 25-200 mg/kg, route oral; details: in vivo, 504 h
Mus musculus [16] = test: Toxicity in human H460 cells expressing K-Ras Q61H mutant xenografted nude mouse assessed as gross signs of adverse effect at 500 mg/kg, po administered weekly once for 3 weeks; format: organism-based; design: dose 500 mg/kg, route oral; details: in vivo, 504 h
HT-29 [17] = test: Cell cycle arrest in human HT-29 cells assessed as accumulation at G1 phase; format: functional, cell-based
Mus musculus [18] = test: Toxicity in human HT-29 cells expressing B-Raf V600E mutant xenografted nude mouse assessed as gross signs of adverse effect at 500 mg/kg, po administered weekly once for 3 weeks; format: organism-based; design: dose 500 mg/kg, route oral; details: in vivo, 504 h
[19] = Plasma concentration in human HT-29 cells expressing B-Raf V600E mutant xenografted nude mouse at 50 mg/kg, po after 8 hrs; format: ADME, organism-based; design: dose 50 mg/kg, route oral
[20] = biological target: T1, Dual specificity mitogen-activated protein kinase kinase; MEK1/2 (Homo sapiens); details: HT-29, 2 to 10 uM
Description: Inhibition of MEK1/2 in human HT-29 cells assessed as inhibition of ERK1/2 phosphorylation at 2 to 10 uM by Western blot analysis

Mus musculus [21] = test: Average drug concentration in human MIAPaCa2 cells expressing K-Ras G12C mutant xenografted nude mouse plasma at 25 mg/kg, po bid; format: ADME, organism-based, MIA PaCa-2; design: dose 25 mg/kg, route oral; details: in vivo
[22] = Cmax in human HT-29 cells expressing B-Raf V600E mutant xenografted nude mouse at 100 mg/kg, po bid; format: ADME, organism-based; design: dose 100 mg/kg, route oral; details: in vivo
Mus musculus [23] = test: Inhibition of MEK-mediated ERK phosphorylation in tumor of human HT-29 cells expressing B-Raf V600E mutant xenografted nude mouse at 100 mg/kg, po after 4 hrs by Western blot analysis relative to control; format: functional; details: HT-29, 4 h
[24] = AUC (0 to 24 hrs) in human H460 cells expressing K-Ras Q61H mutant xenografted nude mouse at 200 mg/kg, po qd; format: ADME, organism-based; design: time < 24 hr, dose 200 mg/kg, route oral; details: in vivo
[25] = Drug level in human HT-29 cells expressing B-Raf V600E mutant xenografted nude mouse tumor at 100 mg/kg, po after 12 hrs; format: ADME, organism-based, Neoplasm; design: dose 100 mg/kg, route oral; details: read-out: Drug uptake
LOX = test: Induction of apoptosis in human LOX cells; format: functional, cell-based
[26] = Drug level in human HT-29 cells expressing B-Raf V600E mutant xenografted nude mouse tumor at 100 mg/kg, po after 2 hrs; format: ADME, organism-based, Neoplasm; design: dose 100 mg/kg, route oral; details: read-out: Drug uptake
[27] = Drug level in human LOX cells expressing B-Raf V600E mutant xenografted nude mouse tumor at 100 mg/kg, po after 1 hr; format: ADME, organism-based, Neoplasm; design: dose 100 mg/kg, route oral; details: read-out: Drug uptake
[28] = biological target: Dual specificity mitogen-activated protein kinase kinase 1 (Homo sapiens, UniProt Q02750); test: Inhibition of MEK1 in human MIA PaCa-2 cells assessed as inhibition of ERK phosphorylation by Western blot analysis; format: cell-based
[29] = Cmax in human HT-29 cells expressing B-Raf V600E mutant xenografted nude mouse at 25 mg/kg, po bid; format: ADME, organism-based; design: dose 25 mg/kg, route oral; details: in vivo
Mus musculus [30] = test: Average drug concentration in human H460 cells expressing K-Ras Q61H mutant xenografted nude mouse plasma at 25 mg/kg, po bid; format: ADME, organism-based; design: dose 25 mg/kg, route oral; details: in vivo
[31] = AUC (0 to 12 hrs) in human H460 cells expressing K-Ras Q61H mutant xenografted nude mouse at 100 mg/kg, po bid; format: ADME, organism-based; design: time < 12 hr, dose 100 mg/kg, route oral; details: in vivo
[32] = Antitumor activity against human LOX cells expressing B-Raf V600E mutant xenografted in nude mouse assessed as tumor growth inhibition at 500 mg/kg, po administered weekly once; format: functional; details: read-out: GI
Mus musculus [33] = test: Average drug concentration in human MIAPaCa2 cells expressing K-Ras G12C mutant xenografted nude mouse plasma at 50 mg/kg, po bid; format: ADME, organism-based, MIA PaCa-2; design: dose 50 mg/kg, route oral; details: in vivo
[34] = Plasma concentration in human HT-29 cells expressing B-Raf V600E mutant xenografted nude mouse at 100 mg/kg, po after 12 hrs; format: ADME, organism-based; design: dose 100 mg/kg, route oral
[35] = Plasma concentration in human LOX cells expressing B-Raf V600E mutant xenografted nude mouse at 100 mg/kg, po after 8 hrs; format: ADME, organism-based; design: dose 100 mg/kg, route oral
HT-29 [36] = test: Antitumor activity against human HT-29 cells expressing B-Raf V600E mutant xenografted in nude mouse assessed as tumor growth inhibition at 25 mg/kg, po bid; format: functional; details: read-out: GI
[37] = Cmax in human LOX cells expressing B-Raf V600E mutant xenografted nude mouse at 25 mg/kg, po bid; format: ADME, organism-based; design: dose 25 mg/kg, route oral; details: in vivo

T1 sequence (P36507 whole entry, looked up): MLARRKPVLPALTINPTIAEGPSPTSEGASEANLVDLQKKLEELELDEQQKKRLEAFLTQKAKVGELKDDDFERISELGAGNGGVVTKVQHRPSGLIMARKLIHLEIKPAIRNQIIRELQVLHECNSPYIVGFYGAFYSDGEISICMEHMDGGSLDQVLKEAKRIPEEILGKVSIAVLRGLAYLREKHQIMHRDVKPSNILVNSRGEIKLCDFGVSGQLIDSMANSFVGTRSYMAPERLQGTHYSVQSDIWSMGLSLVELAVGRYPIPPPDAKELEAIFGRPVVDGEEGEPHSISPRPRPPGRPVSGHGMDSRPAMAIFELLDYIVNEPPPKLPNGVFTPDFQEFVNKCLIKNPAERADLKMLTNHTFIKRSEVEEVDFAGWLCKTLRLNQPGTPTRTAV
T1 sequence (Q02750 whole entry, looked up): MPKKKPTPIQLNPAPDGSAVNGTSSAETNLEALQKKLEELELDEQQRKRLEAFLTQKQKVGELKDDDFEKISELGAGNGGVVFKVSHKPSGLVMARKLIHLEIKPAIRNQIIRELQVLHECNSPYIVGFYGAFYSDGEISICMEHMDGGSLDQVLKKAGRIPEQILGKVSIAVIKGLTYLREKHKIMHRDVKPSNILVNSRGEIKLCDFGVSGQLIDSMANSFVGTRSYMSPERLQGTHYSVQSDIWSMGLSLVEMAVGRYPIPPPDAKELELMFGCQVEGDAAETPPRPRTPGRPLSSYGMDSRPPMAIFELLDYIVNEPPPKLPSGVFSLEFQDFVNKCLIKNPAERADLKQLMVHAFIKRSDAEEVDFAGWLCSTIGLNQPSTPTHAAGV
Dual specificity mitogen-activated protein kinase kinase 1, sequence (Q02750 whole entry): as the sequence (Q02750 whole entry, looked up) above

Cmax [1]: 16900 ng/mL
AUC at 12 h [2]: 3970 ng·h/mL
concentration at 12 h [3]: 318 ng/g
Cave (Mus musculus [5]): 2725 ng/mL
Cmax [6]: 750 ng/mL
inhibition [7]: Active
concentration at 12 h [8]: 61 ng/mL
IC50 (HT-29 [9]): 110 nM
IC90 (HT-29 [9]): 560 nM
Cave (Mus musculus [11]): 388 ng/mL
AUC at 12 h [12]: 18800 ng·h/mL
Cmax [13]: 2750 ng/mL
EC50 (Mus musculus [14]): 928 ng/g
concentration at 8 h [19]: 1260 ng/mL
inhibition [20]: Active
Cave (Mus musculus [21]): 1058 ng/mL
Cmax [22]: 4070 ng/mL
AUC at 24 h [24]: 122000 ng·h/mL
concentration at 12 h [25]: 321 ng/g
concentration at 2 h [26]: 2090 ng/g
concentration at 1 h [27]: 1030 ng/g
IC50 [28]: 69 nM
Cmax [29]: 911 ng/mL
Cave (Mus musculus [30]): 733 ng/mL
AUC at 12 h [31]: 62900 ng·h/mL
Cave (Mus musculus [33]): 1567 ng/mL
concentration at 12 h [34]: 195 ng/mL
concentration at 8 h [35]: 1410 ng/mL
Cmax [37]: 3790 ng/mL
SMILES: C[C@@H](c1ccccc1)[C@@H](C(=O)Nc1ccc(I)cc1F)N1C(=O)N[C@H](c2ccc(OC[C@H](O)CO)cc2)C1=O
inhibition in vivo at 100 mg/kg (Mus musculus [4]): 48%
growth inhibition (GI) (HT-29 [9]; TDE = time-dependent effect): tde
Activity (Mus musculus [10]): Non-toxic
inhibition in vivo at 500 mg/kg (NCI-H460): 48%
inhibition in vivo at 25 mg/kg (MIA PaCa-2): 71%
Activity (Mus musculus [15]): Non-toxic
Activity (Mus musculus [16]): Non-toxic
Activity (HT-29 [17]): Active
Activity (Mus musculus [18]): Non-toxic
inhibition in vivo at 100 mg/kg (Mus musculus [23]): 79%
Activity (LOX): Active
inhibition in vivo at 500 mg/kg [32]: > 100%
inhibition in vivo at 25 mg/kg (HT-29 [36]): 65%
